Our source for the melting point values is a melting point compilation (Tetko et al.).

One may read the melting point as the temperature, or range, at which the solid turns liquid.

The compound `CCCCOC(=O)C(C)(C)Oc1ccc(-c2nc(-c3ccc(OC(C)(C)C(=O)OCCCC)cc3O)nc(-c3ccc(OC(C)(C)C(=O)OCCCC)cc3O)n2)c(O)c1` returned a melting point of 86 to 91 °C.
In the case of `CN(C(=O)C(CC(Cc1ccccc1)C(N)=O)NC(=O)OCc1ccccc1)c1ccc(OCC(=O)NC(CC(N)=O)C(=O)NC(Cc2ccccc2)C(O)C(=O)N2CCCC2C(=O)NC(C)(C)C)cc1` (configuration not stated) it was 85 to 91 °C; in that of `COc1cc(OC)c(/C=C/C(c2ccc(OC)c(NC(=O)c3cc([N+](=O)[O-])cc([N+](=O)[O-])c3)c2)S(=O)(=O)C(/C=C/c2c(OC)cc(OC)cc2OC)c2ccc(OC)c(NC(=O)c3cc([N+](=O)[O-])cc([N+](=O)[O-])c3)c2)c(OC)c1` (configuration not stated), 277 to 279 °C; in that of `CCC(CC)Nc1cc(C)nc(Oc2c(C)cc(C)cc2C)c1[N+](=O)[O-]`, 160 to 162 °C.
Then `[C-]#[N+]C1(C)Cc2ccccc2C(=C)c2ccccc21` (configuration not stated), with 146 to 148 °C; and `CCCc1nn(C)c(C(=O)O)c1[N+](=O)[O-]`, with 122 to 126 °C; and `CP(C)CCP(C)C`, with 0 °C.
The compound `C=C(C)C(=O)OCCCCCCCCCCCOc1ccc(-c2nc(-c3ccccc3)nc(-c3ccc(OCCCCCCCCCCCOC(=O)C(=C)C)cc3O)n2)c(O)c1` returned a melting point of 68.3 °C.
For `O=C(O)Cc1cccc(-c2cc(CCCC(=O)N3CCC(CCCC4CCN(C(=O)CCCc5ccc(OC6OC(CO)C(O)C(O)C6O)c(-c6cccc(CC(=O)O)c6)c5)CC4)CC3)ccc2OC2OC(CO)C(O)C(O)C2O)c1` (configuration not stated), the melting point fell in the range of 119 to 121 °C.
For `Cc1ccccc1-n1c(-c2cc(-c3ccncc3)c(N3CCOCC3)s2)nc2ccccc2c1=O`, the melting point was 208 to 210 °C.
In the case of `Cc1cc(F)c(-n2nc(C(F)(F)F)nc2NC(=O)C(F)(F)F)cc1C(S(=O)C(c1cc(-n2nc(C(F)(F)F)nc2NC(=O)C(F)(F)F)c(F)cc1C)C(F)(F)F)C(F)(F)F` (configuration not stated) it was 233 to 237 °C; in that of `CCOC(=O)OC1=C(c2c(C)cc(C)cc2C)C(=O)NC12CCN(N(C)C)CC2`, 162 to 166 °C.
In the case of `CCCCCCCCCCCCCCCCCC(=O)OCC=C(C)CCC=C(C)CCC=C(C)CCC=C(C)CCC=C(C)CCC=C(C)CCC=C(C)CCC=C(C)CCC=C(C)C` it was 36 to 37 °C.
In the case of `CCCCCCCCCCCCNC(=O)c1cccc(Sc2c(Nc3cc(C(=O)NCCCCCCCCCCCC)ccc3Cl)nn(-c3c(Cl)cc(Cl)cc3Cl)c2OC(=O)CCC)c1` it was 111 to 113 °C; in that of `O=C(O)CN(CC(COCc1ccccc1)N(CCCOCc1ccccc1)CC(=O)O)CC(COCc1ccccc1)N(CCCOCc1ccccc1)CC(=O)O` (configuration not stated), 150 °C; in that of `[C-]#[N+]C(=CC=C1C=C(c2ccccc2)C=C(c2ccccc2)O1)C(=O)OCC`, 150 to 152 °C.
`COc1cc(OC)c(/C=C/C(c2ccc(OC)c(NC(=O)C(C)OC(C)=O)c2)S(=O)(=O)C(/C=C/c2c(OC)cc(OC)cc2OC)c2ccc(OC)c(NC(=O)C(C)OC(C)=O)c2)c(OC)c1` (configuration not stated) returned a melting point of 179 to 180 °C.
Then `CC(C)CCCC(C)C1CCC2C3CC=C4CC(N(CCCNC(=O)CCCCCNc5ccc([N+](=O)[O-])cc5[N+](=O)[O-])S(=O)(=O)c5ccccc5[N+](=O)[O-])CCC4(C)C3CCC12C` (configuration not stated), with 80 to 82 °C; and `CC(C)COc1c(-c2ccc(S(N)(=O)=O)c(F)c2)cnn(-c2cccc(Cl)c2)c1=O`, with 157 to 159 °C; and `CCOC(=O)OC1=C(c2cc(C)ccc2C)C(=O)NC1CC1CCS(=O)(=NC(=O)C(F)(F)F)CC1` (configuration not stated), with 87 to 89 °C.
In the case of `CC1N=C(c2ccccc2)c2cc(Cl)ccc2-n2c1nnc2C(CN(C)C)c1ccccc1` (configuration not stated) it was 200 to 203 °C; in that of `CN=S(=O)(Cc1ccc(Cl)nc1)c1nc(-c2ccc(OC)cc2)cs1` (configuration not stated), 160 to 163 °C; in that of `C=Cc1cccc2c(=O)c(C(=O)CCC)c[nH]c12`, 206 to 208 °C.
Then `CCCCCCCCCCCCCCCCCCN(CCCCCCCCCCCCCCCCCC)C(=O)c1cc(NS(=O)(=O)c2cnc(Cl)c(Cl)c2)c2ccccc2c1O`, with 88 to 89 °C; and `O=c1c(CCCc2cccnc2)cc2cccnc2n1-c1cccc([N+](=O)[O-])c1`, with 172 to 173 °C.
`CCCCCCCCCCCCSc1c(SCCCCCCCCCCCC)c(SCCCCCCCCCCCC)c(SCCCCCCCCCCCC)c(SCCCCCCCCCCCC)c1SCCCCCCCCCCCC` came in with a melting point of 44 to 45 °C.
As for `CCc1nc2c(cnn2CC)c(NC2CCOCC2)c1CNC(=O)c1cccc(C(=O)NCc2ccc(C)c(-c3cccc(CN4CCN(C(=O)OC(C)(C)C)C(C)C4)c3)c2)c1` (configuration not stated), the melting point was in the range of 115 to 118 °C.
In the case of `COc1cc(OC)c(/C=C/C(c2ccc(OC)c(NCCC(=O)O)c2)S(=O)(=O)C(/C=C/c2c(OC)cc(OC)cc2OC)c2ccc(OC)c(NCCC(=O)O)c2)c(OC)c1` (configuration not stated) it was 156 to 158 °C.
Compound `CCOCCCO` returned a melting point of 5.2 °C.
Then `CS(=N)(=O)c1ccc(-n2cnnn2)cc1` (configuration not stated), with 180 to 181 °C; and `O=C(Oc1cccc2cc3cccc(OC(=O)c4ccccc4Oc4ccccc4)c3c(OC(=O)c3ccccc3Oc3ccccc3)c12)c1ccccc1Oc1ccccc1`, with 110 °C; and `CC(CC(CC(Sc1cc(C(C)(C)C)c(O)c(C(C)(C)C)c1)Sc1cc(C(C)(C)C)c(O)c(C(C)(C)C)c1)Sc1cc(C(C)(C)C)c(O)c(C(C)(C)C)c1)Sc1cc(C(C)(C)C)c(O)c(C(C)(C)C)c1` (configuration not stated), with 160 to 162 °C.
Take `CC(C#N)N1CCC(c2noc3cc(F)ccc23)CC1` (configuration not stated): the melting point was in the range of 133 to 134 °C.
Then `O=S(=O)(Cl)Cc1cccc(C(F)(F)F)c1`, with 60 °C.
In the case of `CCCCCCCCCCOc1cc2c(O)c(C(=O)OCC)cnc2cc1OCC` it was 86.5 °C.
Then `C=Cc1cc(C=Cc2cc(C=Cc3cc(C(C)(C)C)cc(C(C)(C)C)c3)cc(C=Cc3cc(C(C)(C)C)cc(C(C)(C)C)c3)c2)cc(C=Cc2cc(C=Cc3cc(C(C)(C)C)cc(C(C)(C)C)c3)cc(C=Cc3cc(C(C)(C)C)cc(C(C)(C)C)c3)c2)c1`, with 272 to 275 °C.
Turning to `COc1cc(C(=O)NC2OC(COC(C)=O)C(OC3OC(COC(C)=O)C(OC(C)=O)C(OC(C)=O)C3OC(C)=O)C(OC(C)=O)C2OC(C)=O)ccc1Cl` (configuration not stated), the melting point was 106 to 110 °C.
In the case of `CCCCCCCS(=O)(=O)c1cc2c3cc(S(=O)(=O)CCCCCCC)c(S(=O)(=O)CCCCCCC)cc3c3cc(S(=O)(=O)CCCCCCC)c(S(=O)(=O)CCCCCCC)cc3c2cc1S(=O)(=O)CCCCCCC` it was 256 to 258 °C; in that of `CC(=O)OC(COc1ccc(C(C)(C)c2ccc(OCC(CN3C(=O)NC4(CC(C)(C)N(C(C)=O)C(C)(C)C4)C3=O)OC(C)=O)cc2)cc1)CN1C(=O)NC2(CC(C)(C)N(C(C)=O)C(C)(C)C2)C1=O` (configuration not stated), 147 to 149 °C; in that of `CCNC(=O)[C@@H](C)NC(=O)[C@H](Cc1c[nH]cn1)NC(=O)[C@H](COCc1ccccc1)NC(=O)[C@H](Cc1ccc(OCc2ccccc2)cc1)NC(=O)[C@H](Cc1c[nH]cn1)NCc1ccccc1`, 83 to 88 °C.
In the case of `CCCCCCCCOc1ncc(-c2ccc(C(OC(c3ccc(-c4cnc(OCCCCCCCC)nc4)cc3)C3COC4(CCCCC4)O3)C3COC4(CCCCC4)O3)cc2)cn1` (configuration not stated) it was 93.4 °C.
Then `CCCCCCCCCCCCN(CCCCCCCCCCCC)c1ccc2c(c1)O/C(=C1\Oc3cc(N(CCCCCCCCCCCC)CCCCCCCCCCCC)ccc3C1=O)C2=O`, with 105 °C.
Turning to `CS(=O)(=O)c1ccc(C(Cc2ccccc2Cl)C(=O)Nc2nc3ccccc3o2)cc1` (configuration not stated), the melting point lay in the range of 107 to 108 °C.
`CC[C@H](C)CNC(=O)[C@@H](C[C@H](O)[C@H](CC1CCCCC1)NC(=O)[C@H](Cc1cscn1)NC(=O)[C@@H](CC(=O)N1CCOCC1)Cc1cccc2ccccc12)C(C)(C)O` came in with a melting point of 102 to 105 °C.
In the case of `CC(=O)OCCn1c([N+](=O)[O-])cnc1CO` it was 138 to 145 °C.
`C=CC(=O)OCCCCCCOc1ccc(C(=O)Oc2ccc(OC(=O)c3ccc(OCCCCCCOC(=O)C=C)cc3)c(C(=O)OCCCCCCCCOC(=O)c3ccco3)c2)cc1` registered a melting point of 36 °C.
In the case of `CC(C)[C@H](NC(=O)N(C)Cc1nc2ccccc2[nH]1)C(=O)N[C@@H](Cc1ccccc1)C[C@H](O)[C@H](Cc1ccccc1)NC(=O)[C@@H](NC(=O)N(C)Cc1nc2ccccc2[nH]1)C(C)C` it was 150 to 152 °C; in that of `FC(F)(F)C1(CNC2=NCCN2)CCCCC1`, 154 to 157 °C.
In the case of `CC(C)(CCCCCCCCC(C)(C)NC(=O)C(C)(C)Cc1cc(C(C)(C)C)c(O)c(C(C)(C)C)c1)NC(=O)C(C)(C)Cc1cc(C(C)(C)C)c(O)c(C(C)(C)C)c1` it was 126 °C; in that of `CCCCCCCCCS(=O)(=O)c1cc2c3cc(S(=O)(=O)CCCCCCCCC)c(S(=O)(=O)CCCCCCCCC)cc3c3cc(S(=O)(=O)CCCCCCCCC)c(S(=O)(=O)CCCCCCCCC)cc3c2cc1S(=O)(=O)CCCCCCCCC`, 202 °C; in that of `C=CCN1C(C)(C)CC(N(CCCC)c2nc(N(CCCC)C3CC(C)(C)N(CC=C)C(C)(C)C3)nc(N(CCCC)C3CC(C)(C)N(CC=C)C(C)(C)C3)n2)CC1(C)C`, 161 to 163 °C.
Then `CCCCN(CCCC)c1ccc(C=Cc2ccc(C=CC3=C(C#N)C(=C(C#N)C#N)OC3(C)C(F)(F)F)s2)c(O[Si](c2ccccc2)(c2ccccc2)C(C)(C)C)c1` (configuration not stated), with 186 to 187 °C.
Consider `CCCCCCCCCCCCCCCCCCSCCOP(=O)(Cc1cc(C(C)(C)C)c(O)c(C)c1C)OCCSCCCCCCCCCCCCCCCCCC`, for which the melting point was in the range of 71 to 73 °C.
`CCC(C)C1NC(=O)C(NC(=O)C(CC(C)C)N(C)C(C)=O)C(C)OC(=O)C(Cc2ccc(OC)cc2)N(C)C(=O)C2CCCN2C(=O)C(CC(C)C)NC(=O)C(C)C(=O)C(C(C)C)OC(=O)CC1OC(C)=O` (configuration not stated) came in with a melting point of 130 to 133 °C.
In turn, `O=C(O)CCC(CC=Cc1ccc(Cl)cc1)(C(=O)C=Cc1ccc(Cl)cc1)c1ccccc1` (configuration not stated) had a melting point of 178 to 180 °C.
In the case of `IC(I)=C(I)CCOCCC(I)=C(I)I`, the melting point is 43.5 to 44.5 °C.
The compound `CCOP(=O)(OCC)Oc1ccc([N+](=O)[O-])cc1` registered a melting point of 35 to 38 °C.
